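Interpolation was linear, between the two tested concentrations surrounding the appropriate level; five concentrations were tested over 48 hours in 96-well plates. GI50: concentration for 50% inhibition of growth. TGI: concentration producing complete growth inhibition.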
What was measured:
Experiment in all cases: growth of human tumour cells (NCI), 48 h
[1] = system: PC-3 prostate
[2] = system: EKVX NSCLC
[3] = system: NCI-H226 lung
[4] = system: HOP-92 NSCLC
[5] = system: DU-145 prostate
[6] = system: SK-MEL-2 melanoma
[7] = system: UACC-62 melanoma
[8] = system: CAKI-1 renal
[9] = system: SK-MEL-5 melanoma
[10] = system: OVCAR-3 ovarian
[11] = system: SNB-19 CNS
[12] = system: HCT-116 colon
[13] = system: SW-620 colon
[14] = system: SNB-75 CNS
[15] = system: K-562 leukemia
[16] = system: A498 renal
[17] = system: TK-10 renal
[18] = system: KM12 colon
[19] = system: A549 NSCLC
[20] = system: CCRF-CEM leukemia
[21] = system: SF-268 CNS
[22] = system: UACC-257 melanoma
[23] = system: T-47D breast
[24] = system: HL-60(TB) leukemia
[25] = system: MDA-MB-231 breast
[26] = system: SR leukemia
[27] = system: SK-MEL-28 melanoma
[28] = system: OVCAR-8 ovarian
[29] = system: BT-549 breast
[30] = system: MCF7 breast
[31] = system: OVCAR-4 ovarian
[32] = system: NCI-H23 lung
[33] = system: NCI-H522 lung
[34] = system: M14 melanoma
[35] = system: NCI/ADR-RES ovarian
[36] = system: HOP-62 NSCLC
[37] = system: SK-OV-3 ovarian
[38] = system: MDA-MB-435
[39] = system: 786-0 renal
[40] = system: IGROV1 ovarian
[41] = system: COLO 205 colon
[42] = system: MOLT-4 leukemia
[43] = system: LOX IMVI melanoma
[44] = system: RXF 393 renal
[45] = system: SN12C renal
[46] = system: NCI-H460 lung
[47] = system: U251 CNS
[48] = system: RPMI-8226 leukemia
[49] = system: UO-31 renal
[50] = system: MALME-3M melanoma
[51] = system: HS 578T breast
[52] = system: SF-295 CNS
[53] = system: HT29 colon
[54] = system: HCC-2998 colon
[55] = system: ACHN renal
[56] = system: HCT-15 colon
[57] = system: SF-539 CNS
[58] = system: OVCAR-5 ovarian

## CCN(CC)Cc1cc(Nc2c3ccc(Cl)cc3nc3ccc(OC)cc23)ccc1O
[1]
  GI50: 5.76 µM
  TGI: 22 µM
[2]
  GI50: 12 µM
  TGI: 34.7 µM
[3]
  GI50: 7.28 µM
  TGI: 21.4 µM
[4]
  GI50: 16.5 µM
  TGI: 31 µM
[5]
  GI50: 5.01 µM
  TGI: 18.3 µM
[6]
  GI50: 2.36 µM
  TGI: 4.6 µM
[7]
  GI50: 2.11 µM
  TGI: 4.31 µM
[8]
  GI50: 2.89 µM
  TGI: 11.7 µM
[9]
  GI50: 2.9 µM
  TGI: 10.3 µM
[10]
  GI50: 7.59 µM
  TGI: 22.7 µM
[11]
  GI50: 6.4 µM
  TGI: 19.3 µM
[12]
  GI50: 2.34 µM
  TGI: 6.32 µM
[13]
  GI50: 3.25 µM
  TGI: 11.1 µM
[14]
  GI50: 5.07 µM
  TGI: 18.9 µM
[15]
  GI50: 2.65 µM
  TGI: 6.39 µM
[16]
  GI50: 13.9 µM
  TGI: 27.5 µM
[17]
  GI50: 7.09 µM
  TGI: 20 µM
[18]
  GI50: 3.17 µM
  TGI: 14.5 µM
[19]
  GI50: 5.59 µM
  TGI: 21.2 µM
[20]
  GI50: 3.86 µM
  TGI: 55.6 µM
[21]
  GI50: 4.33 µM
  TGI: 18.5 µM
[22]
  GI50: 2.17 µM
  TGI: 3.89 µM
[23]
  GI50: 2.41 µM
  TGI: 7.25 µM
[24]
  GI50: 5.32 µM
  TGI: 25.5 µM
[25]
  GI50: 4.28 µM
  TGI: 15.1 µM
[26]
  GI50: 3.32 µM
  TGI: 8.99 µM
[27]
  GI50: 1.77 µM
  TGI: 3.26 µM
[28]
  GI50: 3.68 µM
  TGI: 12.6 µM
[29]
  GI50: 17.2 µM
  TGI: 31.4 µM
[30]
  GI50: 1.6 µM
  TGI: 4.04 µM
[31]
  GI50: 3.66 µM
  TGI: 13.1 µM
[32]
  GI50: 6.86 µM
  TGI: 23.3 µM
[33]
  GI50: 4.62 µM
  TGI: 16.5 µM
[34]
  GI50: 1.88 µM
  TGI: 3.43 µM
[35]
  GI50: 4.7 µM
  TGI: 17.8 µM
[36]
  GI50: 2.89 µM
  TGI: 10.9 µM
[37]
  GI50: 11.1 µM
  TGI: 23.4 µM
[38]
  GI50: 2.29 µM
  TGI: 6 µM
[39]
  GI50: 4.21 µM
  TGI: 15.2 µM
[40]
  GI50: 5.11 µM
  TGI: 21.1 µM
[41]
  GI50: 1.79 µM
  TGI: 3.34 µM
[42]
  GI50: 4.14 µM
  TGI: 12.2 µM
[43]
  GI50: 2 µM
  TGI: 3.82 µM
[44]
  GI50: 1.73 µM
  TGI: 4.36 µM
[45]
  GI50: 5.61 µM
  TGI: 18.3 µM
[46]
  GI50: 4.03 µM
  TGI: 14.4 µM
[47]
  GI50: 3.04 µM
  TGI: 13.2 µM
[48]
  GI50: 2.8 µM
  TGI: 6.63 µM
[49]
  GI50: 4.16 µM
  TGI: 16.1 µM
[50]
  GI50: 2.13 µM
  TGI: 4.21 µM
[51]
  GI50: 12.2 µM
  TGI: 33.1 µM
[52]
  GI50: 3.5 µM
  TGI: 17.1 µM
[53]
  GI50: 2.26 µM
  TGI: 5.03 µM
[54]
  GI50: 2.16 µM
  TGI: 3.78 µM

## CC(=O)Oc1c(-c2ccccc2)oc2ccccc12
[1]
  TGI: 4.55 µM
[2]
  TGI: 3.99 µM
[3]
  TGI: 5.2 µM
[4]
  TGI: 5.4 µM
[5]
  TGI: 13.9 µM
[6]
  TGI: 4.35 µM
[7]
  TGI: 8.49 µM
[8]
  TGI: 2.62 µM
[9]
  TGI: 2.8 µM
[10]
  TGI: 6.02 µM
[55]
  TGI: 3.28 µM
[11]
  TGI: 11.6 µM
[12]
  TGI: 4.12 µM
[13]
  TGI: 11.8 µM
[14]
  TGI: 6.35 µM
[15]
  TGI: 4.13 µM
[16]
  TGI: 9.72 µM
[17]
  TGI: 14 µM
[18]
  TGI: 2.35 µM
[19]
  TGI: 3.33 µM
[20]
  TGI: 3.93 µM
[21]
  TGI: 6.3 µM
[22]
  TGI: 6.04 µM
[23]
  TGI: 5.9 µM
[56]
  TGI: 5.97 µM
[57]
  TGI: 2.86 µM
[24]
  TGI: 2.69 µM
[25]
  TGI: 2.86 µM
[26]
  TGI: 1.59 µM
[27]
  TGI: 6.56 µM
[28]
  TGI: 12.5 µM
[29]
  TGI: 7.05 µM
[30]
  TGI: 4.3 µM
[31]
  TGI: 9.85 µM
[32]
  TGI: 4.15 µM
[33]
  TGI: 5 µM
[34]
  TGI: 5.17 µM
[35]
  TGI: 9.29 µM
[36]
  TGI: 6 µM
[38]
  TGI: 6.95 µM
[39]
  TGI: 14.2 µM
[40]
  TGI: 6.56 µM
[41]
  TGI: 3.77 µM
[42]
  TGI: 4.53 µM
[43]
  TGI: 1.41 µM
[44]
  TGI: 3.59 µM
[45]
  TGI: 4.68 µM
[46]
  TGI: 2.44 µM
[47]
  TGI: 2.76 µM
[58]
  TGI: 3.66 µM
[48]
  TGI: 2.67 µM
[49]
  TGI: 3.96 µM
[50]
  TGI: 5.54 µM
[51]
  TGI: 6.38 µM
[52]
  TGI: 2.58 µM
[53]
  TGI: 5.75 µM
[54]
  TGI: 2.8 µM

## Cn1ncc(NC(=O)c2nc(-c3c(F)cccc3F)sc2N)c1N1CC[C@@H](N)[C@H](F)CC1
[1]
  GI50: 3.6 µM
  TGI: 32 µM
[2]
  GI50: 2.95 µM
  TGI: 50.7 µM
[3]
  GI50: 1.74 µM
  TGI: 27 µM
[4]
  GI50: 4.12 µM
  TGI: 31.3 µM
[5]
  GI50: 5.19 µM
  TGI: 42.6 µM
[6]
  GI50: 3.45 µM
  TGI: 13.5 µM
[7]
  GI50: 5.33 µM
  TGI: 25.2 µM
[9]
  GI50: 4.77 µM
  TGI: 17.8 µM
[10]
  GI50: 11.1 µM
  TGI: 31.3 µM
[55]
  GI50: 2.67 µM
  TGI: 16.7 µM
[11]
  GI50: 26.3 µM
  TGI: 86.5 µM
[12]
  GI50: 4.33 µM
  TGI: 60.3 µM
[13]
  GI50: 3.65 µM
  TGI: 24.8 µM
[14]
  GI50: 1.06 µM
  TGI: 8.83 µM
[15]
  GI50: 3.45 µM
  TGI: 28 µM
[16]
  GI50: 1.17 µM
  TGI: 7.55 µM
[17]
  GI50: 2.81 µM
  TGI: 41.7 µM
[18]
  GI50: 12.4 µM
  TGI: 54.1 µM
[19]
  GI50: 4.83 µM
  TGI: 25.6 µM
[20]
  GI50: 4.55 µM
  TGI: > 100 µM
[21]
  GI50: 3.27 µM
  TGI: 32.6 µM
[22]
  GI50: 14.4 µM
  TGI: 30.6 µM
[23]
  GI50: 3.34 µM
  TGI: 34.2 µM
[56]
  GI50: 3.86 µM
  TGI: 28.7 µM
[57]
  GI50: 3.85 µM
  TGI: 15.3 µM
[24]
  GI50: 4.22 µM
  TGI: 17.3 µM
[25]
  GI50: 6.93 µM
  TGI: 31 µM
[26]
  GI50: 2.37 µM
  TGI: 25 µM
[27]
  GI50: 10.4 µM
  TGI: 25.6 µM
[28]
  GI50: 8.65 µM
  TGI: 37.1 µM
[29]
  GI50: 2.39 µM
  TGI: 16.5 µM
[30]
  GI50: 2.8 µM
  TGI: 13.9 µM
[31]
  GI50: 4.17 µM
  TGI: 44.3 µM
[32]
  GI50: 11.4 µM
  TGI: 34.4 µM
[33]
  GI50: 2.67 µM
  TGI: 14.9 µM
[34]
  GI50: 3.03 µM
  TGI: 18.5 µM
[35]
  GI50: 20.5 µM
  TGI: > 89.8 µM
[36]
  GI50: 3.56 µM
  TGI: 22.8 µM
[37]
  GI50: 1.42 µM
  TGI: 6 µM
[38]
  GI50: 3.61 µM
  TGI: 19.4 µM
[39]
  GI50: 3.75 µM
  TGI: 20.8 µM
[40]
  GI50: 2.88 µM
  TGI: 19.8 µM
[41]
  GI50: 3.33 µM
  TGI: 16.7 µM
[42]
  GI50: 3.54 µM
  TGI: 30.5 µM
[43]
  GI50: 5.71 µM
  TGI: 21 µM
[44]
  GI50: 2.98 µM
  TGI: 15.3 µM
[45]
  GI50: 3.69 µM
  TGI: 43.3 µM
[46]
  GI50: 5.02 µM
  TGI: 21.2 µM
[47]
  GI50: 8.54 µM
  TGI: 23.9 µM
[58]
  GI50: 16.5 µM
  TGI: 54.6 µM
[48]
  GI50: 2.54 µM
  TGI: 29.3 µM
[49]
  GI50: 1.24 µM
  TGI: 5.67 µM
[50]
  GI50: 5.18 µM
  TGI: 21 µM
[51]
  GI50: 2.99 µM
  TGI: 14.8 µM
[52]
  GI50: 8.75 µM
  TGI: 24 µM
[53]
  GI50: 5.58 µM
  TGI: 27.5 µM
[54]
  GI50: 14.2 µM
  TGI: 35.2 µM
